According to PubChem BioAssay AID449750 (Broad Institute, 2010):
Several values for one entry are separate records, joined by “and”; a condition that tells them apart may be missing. Equal entries are not always repeated. Activity calls are given as the source filed them. No rule for the calls is given here.

test: non-covalent RecA intein splicing inhibitors, dose response, biochemical, cell-free, fluorescence, secondary screen (AID 449750)

Row | SMILES | AC50
1 | Cc1[nH]n(-c2ccccc2)c(=O)c1C(C[N+](=O)[O-])c1ccc(Cl)cc1 (centres undefined) | 8.62 µM
2 | COc1cc(/C=N/NC(=O)c2ccc(F)cc2)ccc1OC(=O)c1ccco1 | > 38 µM (inactive)
3 | N#Cc1cc([N+](=O)[O-])ccc1NC(=O)COC(=O)CCC1CCCCC1 | 15.1 µM
4 | O=[N+]([O-])c1cc(O)c2ncccc2c1 | 8.43 µM
5 | CN(C)c1ncc(C2=C(Cl)C(=O)C(N3CCCC3)=C(Cl)C2=O)s1 | 14 µM
6 | Cc1cc(OC(=O)c2ccccc2)n(CCC#N)n1 | 17.7 µM
7 | OCC[n+]1c2ccccc2nc2ccc(N3CCOCC3)cc21 | 26.5 µM
8 | Cc1oc2c(c1C(=O)NCc1cccnc1)C(=O)c1ccccc1C2=O | 1.4 µM
9 | Cc1ccc(C(=O)n2cnc3ccccc32)cc1C | > 38 µM (inactive)
10 | CCOc1cc(/C=C(\C#N)C(=O)Nc2cccc(C(=O)O)c2)cc(Br)c1OC(=O)c1ccc(OC)cc1 | 8.34 µM
11 | Oc1ccc(O)c2c1C1c3ccccc3C2c2ccccc21 | 38.4 µM
12 | NS(=O)(=O)c1ccc(N=Nc2ccc(=O)[nH]c2O)cc1 | 24.6 µM
13 | CCOC(=O)Cc1[nH]nc2c1C(c1ccsc1)C(C#N)=C(N)O2 (centres undefined) | > 38 µM (inactive)
14 | COC(=O)[C@@H]1C[C@]2(OC(=O)c3ccccc3)C=CC(=O)C[C@@H]2N1C(=O)OCc1ccccc1 | 24.5 µM
15 | CC(=O)N(c1ccccc1)C(C)c1nc(C#N)c(C#N)nc1C (centres undefined) | > 38 µM (inactive)
16 | CCN(Cc1ccccc1)S(=O)(=O)c1ccc(C(=O)N(CCCN(C)C)c2nc3cc(C)cc(C)c3s2)cc1 | 15.1 µM
17 | Cc1ccc(C2C(C#N)=C(N)Oc3n[nH]c(-c4cccs4)c32)s1 (centres undefined) | 3.32 µM
18 | COc1cc(/C=C2\C(=O)N(c3ccc(NC(C)=O)cc3)N=C2c2ccccc2)ccc1O | > 38 µM (inactive)
19 | CCCc1ccc(/C=C2\C(=O)c3ccccc3C(O)=C2C(=O)OCC)cc1 | 8.63 µM
20 | Cc1nn(C(=O)c2cccnc2)c(C)c1Sc1ccc(Br)cc1 | 24.5 µM
21 | CCC(=O)N/N=C(\C)CC(=O)Nc1cccc([N+](=O)[O-])c1 | > 38 µM (inactive)
22 | CC1=NN(c2ccccc2)C(=O)C1/C=C1\C(=O)NC(=O)N(c2ccc(C)c(C)c2)C1=O (centres undefined) | 26.1 µM
23 | COc1ccc(Nc2ccc(OC)cc2)cc1 | > 38 µM (inactive)
24 | Cc1[nH][nH]c(=O)c1C(c1cc2c(cc1Br)OCO2)c1c(C)[nH][nH]c1=O | 20.2 µM
25 | COc1ccc(-c2cc(=O)[nH][nH]2)cc1OC | 4.35 µM
26 | Cc1[nH]nc2c1C(c1ccc(-c3ccc(Cl)cc3)o1)C(C#N)=C(N)O2 (centres undefined) | 39.1 µM
27 | CC(c1ccc(O)cc1)(c1ccc(O)cc1)c1ccc(CCBr)cc1 | 11.8 µM

Row | SMILES | AC50
28 | CCCCCCN(C(=O)CCl)c1ccccc1 | 3.5 µM
29 | Cc1nc2ccccc2c2c1C(=O)N(C)C2=O | > 38 µM (inactive)
30 | CC(C)(C)c1ccc(S(=O)(=O)/N=C2\C=C(NS(=O)(=O)c3ccccc3)C(=O)c3ccccc32)cc1 | 5.5 µM
31 | O=C(CN1C(=O)S/C(=C\C=C\c2ccccc2)C1=O)Nc1ccc(C(=O)O)cc1 | 29.6 µM
32 | O=C(CCl)Nc1cn(-c2ccccc2)nc1-c1ccc(F)cc1 | 2.82 µM
33 | Cc1ccc(S(=O)(=O)N(C(=O)c2ccncc2)c2ccc(OC(=O)c3ccncc3)c3ccccc23)c(C)c1 | 16.9 µM
34 | CCCCOc1ccc(C(=O)C(CN2CCOCC2)c2ccccc2)cc1 (centres undefined) | 7.35 µM
35 | NNc1n[nH]c(=S)n1N | 32.3 µM
36 | N#CC1=C(N)Oc2n[nH]c(-c3cccs3)c2C1c1ccccc1C(=O)O (centres undefined) | 20.9 µM
37 | Cc1nn(-c2ccccc2)c(Cl)c1CN(C(=O)CCl)c1cccc2ccccc12 | 0.933 µM
38 | CC1(C)CC(=O)C(C2(O)C(=O)NC(=O)NC2=O)=C(O)C1 | 1.79 µM
39 | COc1ccc(-c2[nH]nc3c2C(c2ccccc2OC(=O)N2CCOCC2)C(C#N)=C(N)O3)cc1 (centres undefined) | 38.2 µM
40 | CCN(CC)CCOc1ccc(/C(=C(/Cl)c2ccccc2)c2ccccc2)cc1 | 9.31 µM
41 | O=C(c1c[nH]c(C(=O)C(Cl)(Cl)Cl)c1)c1ccccc1Cl | 24.9 µM
42 | CC(C)=CCC/C(C)=C/Cc1c(O)ccc(C(=O)/C=C/c2ccc(O)cc2)c1O | 16.4 µM
43 | Cc1ccc2c(c1)c1nnc(SCC(=O)Nc3ccc(N(C)C)cc3)nc1n2CC(=O)O | > 38 µM (inactive)
44 | CS(=O)(=O)c1nc(-c2ccccc2)cc(C(F)(F)F)n1 | > 38 µM (inactive)
45 | O=C(CNC(=O)C1COc2ccccc2O1)N/N=C\c1ccccc1Cl (centres undefined) | > 38 µM (inactive)
46 | Nc1ccc2nc(Cc3ccccc3)[nH]c2c1 | > 38 µM (inactive)
47 | CCOC(=O)CSc1n[nH]c(NC(=O)c2cccc(C(F)(F)F)c2)n1 | > 38 µM (inactive)
48 | COc1cc(/C=C2/SC(=S)NC2=O)ccc1OS(=O)(=O)c1ccc(C)cc1 | 5.83 µM
49 | COc1ccc(Cc2nccc3cc(OC)c(OC)cc23)cc1OC | > 38 µM (inactive)
50 | OC(CNCCC1C=Nc2ccccc21)Cn1c2ccc(Cl)cc2c2cc(Cl)ccc21 (centres undefined) | 8.48 µM
51 | Cc1ccc(-c2[nH]nc3c2C(C)C(C#N)=C(N)O3)cc1 (centres undefined) | > 38 µM (inactive)
52 | CC(C)N(c1ccccc1)c1ccc(NC(=O)CCl)cc1 | 1.45 µM
53 | COc1cccc(NC2=C(Cl)C(=O)OC2OC(=O)c2ccco2)c1 (centres undefined) | > 38 µM (inactive)
54 | O=C(Cc1cc(=O)[nH][nH]1)N/N=C/C(Cl)=C/c1ccccc1 | 19.8 µM and 11.1 µM
